Tests used:
[1] = Cytotoxicity against human HCT8 cells assessed as cell viability after 72 hrs by MTT assay; type: functional, cell-based; settings: HCT-8, 72 h
[2] = test system: MDA-MB-435; assay: Cytotoxicity against human MDA-MB-435 cells assessed as cell viability after 72 hrs by MTT assay; type: functional, cell-based; settings: MDA-MB-435, 72 h
[3] = test system: MCF7; assay: Cytotoxicity against human MCF7 cells assessed as cell viability after 72 hrs by MTT assay; type: functional, cell-based; settings: MCF7, 72 h
[4] = test system: V79; assay: Cytotoxicity against chinese hamster V79 cells assessed as cell viability after 72 hrs by MTT assay; type: cell-based; settings: Cricetulus griseus, V79, 72 h
[5] = test system: HCT-116; assay: Cytotoxicity against human HCT116 cells assessed as cell viability after 72 hrs by MTT assay; type: functional, cell-based; settings: HCT-116, 72 h
[6] = test system: PC-3; assay: Cytotoxicity against human PC3 cells assessed as cell viability after 72 hrs by MTT assay; type: functional, cell-based; settings: PC-3, 72 h
[7] = test system: MX1; assay: Cytotoxicity against human MX1 cells assessed as cell viability after 72 hrs by MTT assay; type: functional, cell-based; settings: MX1, 72 h
[8] = test system: DU-145; assay: Cytotoxicity against human DU145 cells assessed as cell viability after 72 hrs by MTT assay; type: functional, cell-based; settings: DU-145, 72 h
[9] = test system: L929; assay: Cytotoxicity against mouse L929 cells assessed as cell viability after 72 hrs by MTT assay; type: ADME, cell-based; settings: L929, 72 h
[10] = Cytotoxicity against human Hs578T cells assessed as cell viability after 72 hrs by MTT assay; type: functional, cell-based; settings: Hs-578T
[11] = test system: HL-60; assay: Cytotoxicity against human HL60 cells assessed as cell viability after 72 hrs by MTT assay; type: functional, cell-based; settings: HL-60, 72 h
[12] = test system: SF-295; assay: Cytotoxicity against human SF295 cells assessed as cell viability after 72 hrs by MTT assay; type: functional, cell-based; settings: SF-295, 72 h
[13] = test system: OVCAR-8; assay: Cytotoxicity against human OVCAR8 cells assessed as cell viability after 72 hrs by MTT assay; type: functional, cell-based; settings: OVCAR-8, 72 h
[14] = test system: PBMC; assay: Cytotoxicity against human PBMC assessed as cell viability after 72 hrs by MTT assay; type: cell-based

| SMILES | IC50 [1] [µM] | IC50 [2] [µM] | IC50 [3] [µM] | IC50 [4] [nM] | IC50 [5] [µM] | IC50 [6] [µM] | IC50 [7] [µM] | IC50 [8] [µM] | IC50 [9] [µM] | IC50 [10] [µM] | IC50 [11] [nM] | IC50 [12] [µM] | IC50 [13] [µM] | IC50 [14] [µM] |
| --- | --- | --- | --- | --- | --- | --- | --- | --- | --- | --- | --- | --- | --- | --- |
| O=C1C(Br)=C(NCc2cn(-c3cccc([N+](=O)[O-])c3)nn2)C(=O)c2ccccc21 | > 11 | > 11 | > 11 | > 11000 | > 11 | > 11 | > 11 | > 11 | > 11 | > 11 | > 11000 | > 11 | > 11 | > 11 |
| CC1(C)CC(Nc2cccc(F)c2)C2=C(O1)C(=O)c1ccccc1C2=O (configuration not stated) | – | – | 6.92 | 2680 | – | 7.77 | 7.11 | 8.76 | 3.24 | 7.68 | – | – | – | 4.44 |
| CC1(C)CC(Nc2cccc([N+](=O)[O-])c2)C2=C(O1)C(=O)c1ccccc1C2=O (configuration not stated) | 6.42 | 1.45 | – | 3860 | 8.48 | – | – | – | 4.62 | – | 1510 | 1.51 | – | 4.84 |
| CC1(C)CC(Nc2cccc(Br)c2)C2=C(O1)C(=O)c1ccccc1C2=O (configuration not stated) | > 12 | 9.6 | 9.99 | 3200 | > 12 | 9.87 | 8.66 | 10.5 | 3.81 | 11.5 | 7660 | 8.76 | 10.4 | 5 |
| CC1(C)CC(Sc2ccccc2)C2=C(O1)C(=O)c1ccccc1C2=O (configuration not stated) | > 14 | – | 13.3 | > 14000 | > 14 | > 14 | 11.8 | > 14 | > 14 | 4.61 | 2910 | > 14 | > 14 | > 14 |
| CC1(C)OC2=C(C(=O)c3ccccc3C2=O)C1Sc1ccccc1 (configuration not stated) | 2.25 | – | 7.43 | > 14800 | 3.29 | 6.09 | 6.45 | 6.98 | 13.8 | 3.26 | 470 | 9.15 | 6.09 | > 14.8 |
| CC(=O)OC[C@H]1OC(n2cc(CNC3=C(Br)C(=O)c4ccccc4C3=O)nn2)[C@H](OC(C)=O)[C@@H](OC(C)=O)[C@@H]1OC(C)=O (some centres not stated) | 2.2 | 2.67 | 2.91 | 3590 | 4.39 | > 7 | 3.59 | 4.07 | 3.66 | 3.68 | 1190 | 2.83 | 2.8 | 4.76 |
| O=C1C=C(NCc2cn(C3=CC(=O)c4ccccc4C3=O)nn2)C(=O)c2ccccc21 | 2.7 | 3.09 | 3.67 | 6210 | > 12 | 5.02 | 3.7 | 5.34 | 5.21 | 5.68 | 800 | 3.82 | 2.86 | 6.77 |
| O=C1C=C(n2cc(CNC3=C(Cl)C(=O)c4ccccc4C3=O)nn2)C(=O)c2ccccc21 | 7.08 | 3.33 | 7.76 | 7100 | 6.65 | 5.42 | 4.02 | 4.92 | 6.83 | 4.68 | 3420 | 5.55 | 6.02 | 10.2 |
| O=C1C=C(n2cc(CNC3=C(Br)C(=O)c4ccccc4C3=O)nn2)C(=O)c2ccccc21 | > 10 | > 10 | > 10 | > 10000 | > 10 | > 10 | > 10 | > 10 | > 10 | > 10 | > 10000 | > 10 | > 10 | > 10 |
| CC1(C)CC(Nc2ccc([N+](=O)[O-])cc2)C2=C(O1)C(=O)c1ccccc1C2=O (configuration not stated) | 4.97 | 5.42 | 7.16 | 1610 | 5.66 | 5.79 | 5.52 | 6.13 | 1.37 | 5.95 | 4260 | 5.95 | 6.66 | 2.01 |
| CC1(C)CC(Nc2ccc(Br)cc2)C2=C(O1)C(=O)c1ccccc1C2=O (configuration not stated) | 5.31 | 5.24 | 4.97 | 2550 | 5.84 | 5.41 | 6.33 | 6.72 | 2.38 | 6.4 | 4730 | 6.38 | 5.53 | 2.89 |
| CC1(C)CC(Nc2ccc(I)cc2)C2=C(O1)C(=O)c1ccccc1C2=O (configuration not stated) | > 10 | 9.01 | 7.53 | 2550 | > 10 | 9.06 | 10.7 | 10.8 | 2.31 | 9.17 | 6880 | 9.19 | > 10 | 3.22 |
| CC1(C)CC(Nc2ccc(Cl)cc2)C2=C(O1)C(=O)c1ccccc1C2=O (configuration not stated) | 0.65 | 1 | 0.98 | 1500 | 0.54 | 1 | 0.76 | 1.17 | 1.85 | 0.6 | 980 | 0.71 | 1.47 | 0.52 |
| COc1ccc(NC2CC(C)(C)OC3=C2C(=O)c2ccccc2C3=O)cc1 (configuration not stated) | 0.47 | 0.58 | 1.02 | 960 | 0.33 | 0.55 | 0.52 | 0.88 | 0.74 | 0.69 | 190 | 0.74 | 0.44 | 1.76 |
| COc1cccc2c1C(=O)c1c(O)c3c(c(O)c1C2=O)C[C@@](O)(C(=O)CO)C[C@@H]3O[C@H]1C[C@H](N)[C@H](O)[C@H](C)O1 [DOXORUBICIN] | 0.13 | – | – | 240 | – | – | 0.5 | 0.53 | – | 0.37 | – | – | 0.35 | – |

From ChEMBL document CHEMBL3112408, “1,2,3-triazole-, arylamino- and thio-substituted 1,4-naphthoquinones: potent antitumor activity, electrochemical aspects, and bioisosteric replacement of C-ring-modified lapachones” (Bioorg Med Chem, 2014)
